The test system of assay [1] is A. baumannii isolates. The assay is described as follows: Susceptibility of A. baumannii isolates by broth microdilution (CLSI methodology). The class given is cell-based. The note with it: for MIC: Acinetobacter baumannii. The method, then:
Susceptibility of the A. baumannii isolates to each of the agents was determined by broth microdilution using Clinical and Laboratory Standards Institute (CLSI) methodology at a central laboratory. […] The susceptibility of A. baumannii to other drugs was interpreted according to the standard procedures as defiend by CLSI (Clinical and Laboratory Standards Institute Test Procedures MO2-A10, Vol. 29, No. 1; M07-A8, Vol. 29, No. 2 and/or M100-S19, Vol. 29, No. 3; Jan. 2009).
In general terms: In broth dilution the organism is exposed to a series of concentrations in liquid medium.

The test system of assay [2] is A. baumannii. Nature of the assay: Clinical and microbiological outcome at test of cure visit in subjects with nosocomial pneumonia, 3 clinical studies of doripenem. The class given is in vivo, human. How it is done: Each group received treatment of either doripenem alone or doripenem with concomitant therapy, as noted.
True concomitant therapy was determined by applying the following algorithm: treatment with the second antimicrobial was initiated during Study Days 1-14 and administered on the same study days as doripenem. In addition, the second antimicrobial was given for >1 day of the overlapping period. Concomitant therapy was assessed for the following antimicrobial agents: the fluoroquinolones ciprofloxacin and levofloxacin, colistin and the aminoglycosides amakacin and tobramycin.
Doripenem was administered at either 500 mg Q8H as a 1 hour infusion, 500 mg Q8H as a 4 hour infusion or 1g Q8H as a 4 hour infusion, depending on the specific clinical study, as noted in the Tables below.

The subject of assay [3] is A. baumannii. Particulars: MICs as high as 16 μg/mL; doripenem 1 gram over a 4 hour infusion; cited from earlier work.
The mark [4] stands for this setting: isolate of each patient, doripenem + amikacin group.
[5] abbreviates: per patient, test of cure visit, doripenem 1 gram or 500 mg every 8 hours, listed as Doripenem Monotherapy, monohydrate.
Where [6] appears, read: whole treatment group, test of cure.
The mark [7] stands for this setting: A. baumannii isolate of each patient, doripenem monotherapy group, monohydrate.
Where [8] appears, read: isolate of each patient, doripenem + amikacin group, monohydrate.
[9] abbreviates: isolate of each patient, doripenem + colistin group, monohydrate.
Setting [10] is: isolate of each patient, doripenem + fluoroquinolone group.
Where [11] appears, read: isolate of each patient, doripenem + tobramycin group, monohydrate.
Setting [12] is: isolate of each patient, doripenem + tobramycin group.
The mark [13] stands for this setting: isolate of each patient, doripenem + colistin group.

Where “and” joins values, the source holds several entries; their conditions need not be identical. Equal entries are not always repeated. Entries after “also recorded” stand apart in the source; their conditions may differ. Structures can show the parent of a compound that is named as a salt. Where two headings read alike, the source gives them in different places.

Turning to `NCC[C@H](O)C(=O)N[C@@H]1C[C@H](N)[C@@H](O[C@H]2O[C@H](CN)[C@@H](O)[C@H](O)[C@H]2O)[C@H](O)[C@H]1O[C@H]1O[C@H](CO)[C@@H](O)[C@H](N)[C@H]1O` [Amikacin, amikacin], in assay [1] (setting [4]), the “Amikacin MIC” value was >64 μg/mL (5×) and 4 μg/mL and 1 μg/mL (2×) and 2 μg/mL; the Amikacin susceptibility result was “(NS) (Non-susceptible (NS) ≧32 μg/mL); also recorded: (S) (Amikacin: Susceptible (S) ≦16 μg/mL)”.
On to `C[C@@H](O)[C@H]1C(=O)N2C(C(=O)O)=C(S[C@@H]3CN[C@H](CNS(N)(=O)=O)C3)[C@H](C)[C@H]12` [Doripenem, doripenem monohydrate], for which the treatment effect entry in assay [2] (nosocomial pneumonia due to doripenem-susceptible A. baumannii) is “effective”. For the same compound, the “Clinical Outcome” value in assay [2] (setting [5]) was “Cure (7×) and Failure (2×)”. Moreover, in assay [2] (setting [5]), the “Microbiological Outcome” value is given as “Eradicated; also recorded: Persisted”. In addition, the positive outcome in assay [2] (setting [6]) is reported as 77.8%. Also, the “positive outcome (patients with positive outcome / patients in group)” value in assay [2] (setting [6]) is recorded as 7/9. In addition, the “treatment of pneumonia due to A. baumannii” value in assay [3] is “effectively treated”. The “Doripenem MIC” value in assay [1] (setting [7]) was 0.25 μg/mL (2×) and 0.12 μg/mL (2×) and 0.5 μg/mL (2×) and >128 μg/mL and 8 μg/mL and 1 μg/mL; in assay [1] (setting [8]) it was 64 μg/mL (2×) and 1 μg/mL (2×) and 0.25 μg/mL and 0.12 μg/mL and >32 μg/mL and 16 μg/mL; in assay [1] (setting [9]) it was >32 µg/mL and 32 µg/mL and 1 µg/mL; in assay [1] (isolate of each patient, doripenem + fluoroquinolone group, monohydrate), 32 µg/mL and 16 µg/mL and >32 µg/mL; in assay [1] (setting [11]) it was 0.12 μg/mL (3×) and >32 μg/mL and 1 μg/mL and 0.25 μg/mL. The Doripenem susceptibility entry is recorded as “(S) (Susceptible (S) ≦1 μg/mL); also recorded: (NS) (Non-susceptible (NS) >2 μg/mL)” in assay [1] (setting [7]); “(NS) (Non-susceptible (NS) >2 μg/mL); also recorded: (S) (Susceptible (S) ≦1 μg/mL)” in assay [1] (setting [8]); “(NS) (Non-susceptible (NS) >2 μg/mL); also recorded: (S) (Susceptible (S) ≦1 μg/mL)” in assay [1] (setting [9]); “(NS) (Non-susceptible (NS) >2 μg/mL)” in assay [1] (setting [10]); “(S) (Susceptible (S) ≦1 μg/mL); also recorded: (NS) (Non-susceptible (NS) >2 μg/mL)” in assay [1] (setting [11]). Also, the minimal inhibitory concentration (MIC) in assay [1] (isolate of each patient, doripenem + fluoroquinolone group, read-out: Doripenem MIC) is greater than 32 µg/mL.
As to `C[C@H]1COc2c(N3CCN(C)CC3)c(F)cc3c(=O)c(C(=O)O)cn1c23` [Levofloxacin, levofloxacin], the minimal inhibitory concentration (MIC) in assay [1] (isolate of each patient, doripenem + fluoroquinolone group, read-out: Fluoroquinolone MIC) is greater than 4 µg/mL. In assay [1] (setting [10]), the “Fluoroquinolone MIC” value is greater than 4 µg/mL and the Levofloxacin susceptibility entry is “(NS) (Non-susceptible (NS) ≧4 μg/mL)”.
On to `NC[C@H]1O[C@H](O[C@H]2[C@H](O)[C@@H](O[C@H]3O[C@H](CO)[C@@H](O)[C@H](N)[C@H]3O)[C@H](N)C[C@@H]2N)[C@H](N)C[C@@H]1O` [Tobramycin, tobranycin sulfate], for which, in assay [1] (setting [12]), the “Tobramycin MIC” value was 0.5 μg/mL (2×) and 4 μg/mL and 0.25 μg/mL; the Tobramycin susceptibility entry is recorded as “(S) (Tobramycin: Susceptible (S) ≦4 μg/mL)”.
For colistin, in assay [1] (setting [13]), the “Colistin MIC” value stood at 1 µg/mL and the Colistin susceptibility result is given as “S (Colistin: Susceptible (S) ≦2 μg/mL)”.

Usually MIC stands for the least concentration at which growth counts as inhibited.

The record behind these values is patent US20110281839A1, “COMBINATION THERAPY FOR THE TREATMENT OF BACTERIAL INFECTIONS” (priority 2010, published 2011).
